Assay results: publication PMC8910432 (International Journal of Molecular Sciences, 2022)
Like-named read-outs stand apart in the source and are kept apart here.

What was measured:
3CLpro [1] = target: T1, 3CLpro (Severe acute respiratory syndrome coronavirus 2, UniProt P0DTD1); settings: cited from earlier work; for IC50: read-out: IC50 3CLpro
[2] = set-up: method as in PMID 12111394, PMID 16526653; settings: ref 38, 39; cited from earlier work
SARS-CoV-2 3CLpro = SARS-CoV-2 3CLpro (Severe acute respiratory syndrome coronavirus 2, UniProt P0DTD1); experiment: biochemical; format: biochemical; settings: for concentration from which inhibitory effect on 3CLpro activity is significant: tested 0.1 to 100 µM
3CLpro [3] = target: T1, 3CLpro; format: binding; settings: TA 10 to 500 µM, 30 min
3CLpro [4] = target: T1, 3CLpro; settings: FRET-based assay; cited from earlier work
3CLpro [5] = target: T1, 3CLpro; experiment: biochemical; settings: SPR, 1:1 binding model; read-out: KD TA/3CLpro
3CLpro [6] = target: T1, 3CLpro; settings: cited from earlier work; for binding free energy of 3CLpro: ref 66
mice = settings: even at high dosages; cited from earlier work

O=C(O[C@H]1Cc2c(O)cc(O)cc2OC1c1cc(O)c(O)c2c(=O)c(O)cc(C3Oc4cc(O)cc(O)c4C[C@H]3O)cc12)c1cc(O)c(O)c(O)c1 (stereo partly drawn) [3-isotheaflavin-3-gallate, reference compound]
IC50 (3CLpro [1]): 7000 nM

O=C(OC[C@H]1OC(OC(=O)c2cc(O)c(O)c(OC(=O)c3cc(O)c(O)c(O)c3)c2)[C@H](OC(=O)c2cc(O)c(O)c(OC(=O)c3cc(O)c(O)c(O)c3)c2)[C@@H](OC(=O)c2cc(O)c(O)c(OC(=O)c3cc(O)c(O)c(O)c3)c2)[C@@H]1OC(=O)c1cc(O)c(O)c(OC(=O)c2cc(O)c(O)c(O)c2)c1)c1cc(O)c(O)c(OC(=O)c2cc(O)c(O)c(O)c2)c1 (stereo partly drawn) [TA, 1,2,3,4,6-penta-O-{3,4-dihydroxy-5-((3,4,5-trihydroxybenzoyl)oxy)benzoyl}-D-glucopyranose]
solubility in water [2]: highly soluble
reduction of 3CLpro activity (SARS-CoV-2 3CLpro; at 10 µM): up to 95%
IC50 (SARS-CoV-2 3CLpro; this study): 1000 nM
TA adsorption onto 3CLpro (QCMD) (3CLpro [3]): TA adsorption is observed to increase with higher TA concentrations
IC50 (3CLpro [4]): 13400 nM
Kd (3CLpro [5]): 57.5 nM
IC50 (3CLpro [1]; lower end of literature range): 2100 nM
IC50 (3CLpro [1]): 3000 nM
inhibition of 3CLpro activity (3CLpro [1]; ref 35, 36, 37): 100%
IC50 (3CLpro [1]; upper end of literature range): 9000 nM

O=C(OC[C@H]1O[C@@H](OC(=O)c2cc(O)c(O)c(O)c2)[C@H](O)[C@@H](OC(=O)c2cc(O)c(O)c(O)c2)[C@@H]1O)c1cc(O)c(O)c(O)c1 [TGG, 1,3,6-tri-O-galloyl-β-D-glucose]
concentration from which inhibitory effect on 3CLpro activity is significant (SARS-CoV-2 3CLpro): ≥ 50 µM

COc1ccc(-c2cc(=O)c3c(O)cc(O[C@@H]4O[C@H](CO[C@@H]5O[C@@H](C)[C@H](O)[C@@H](O)[C@H]5O)[C@@H](O)[C@H](O)[C@H]4O)cc3o2)cc1 [acaciin]
free energy of the 3CLpro complex (3CLpro [6]; ref 67): -27.61 kcal/mol

O=c1cc(-c2ccc(O)c(-c3c(O)cc(O)c4c(=O)cc(-c5ccc(O)cc5)oc34)c2)oc2cc(O)cc(O)c12 [amentoflavone]
binding free energy of 3CLpro (3CLpro [6]): -32.14 ± 4.73 kcal/mol

O=C(O[C@@H]1O[C@@H]2COC(=O)c3cc(O)c(O)c(O)c3-c3c(cc(O)c(O)c3O)C(=O)O[C@H]([C@H]1O)[C@@H]2O)c1cc(O)c(O)c(O)c1 [corilagin, β-1-O-galloyl-3,6-(R)-hexahydroxydiphenoyl-D-glucose]
concentration from which inhibitory effect on 3CLpro activity is significant (SARS-CoV-2 3CLpro): ≥ 50 µM
toxicity in mice (mice): very low toxicity
inhibition of 3CLpro activity (3CLpro [1]; ref 33): 88%

CCC(CC)COC(=O)[C@H](C)N[P@](=O)(OC[C@H]1O[C@@](C#N)(c2ccc3c(N)ncnn23)[C@H](O)[C@@H]1O)Oc1ccccc1 [remdesivir]
binding free energy of 3CLpro (3CLpro [6]): -26.67 ± 3.39 kcal/mol

C[C@@H]1O[C@@H](OC[C@H]2O[C@@H](Oc3c(-c4ccc(O)c(O)c4)oc4cc(O)cc(O)c4c3=O)[C@H](O)[C@@H](O)[C@@H]2O)[C@H](O)[C@H](O)[C@H]1O [rutin]
binding free energy of 3CLpro (3CLpro [6]): -30.96 ± 5.56 kcal/mol

(−)-epicatechin-3-O-gallate [ECG]
MMPBSA binding free energy with 3CLpro (3CLpro [6]; ref 33): -41.5 ± 5.1 kcal/mol
MMPBSA binding free energy with 3CLpro (3CLpro [6]; ref 68): -46.03 ± 6.48 kcal/mol
IC50 (3CLpro [1]): 847 ± 5 nM

cyanidin-3-O-glucoside
MMPBSA binding free energy with 3CLpro (3CLpro [6]; protomer A): -50.8 kcal/mol
MMPBSA binding free energy with 3CLpro (3CLpro [6]; protomer B): -42.1 kcal/mol
